# According to patent US20050181076A1, “Compositions and methods for treatment of diabetes” (priority 1999, published 2005):
# How the values were obtained:
# [1] = tested on: diabetics; experiment: Brickellia flavonoids administered to diabetics; format: in vivo; settings: for results in diabetics compared with the extract: flavonoids extracted and fractionated from Brickellia californica; for effectiveness in treating diabetes: alone or in combination
# Description: The flavonoids specifically used were dihydrokaemferol and apigenin, a flavone. […] I have discovered an underlying “molecular switch” that controls both forms of diabetes. This “switch” can be operated by luteolin and similar flavonoids.
# [2] = tested on: Type II (BBZDR/Wor) diabetic rats; experiment: luteolin dose study in chronic Type 2 diabetic rats over 24 hr; format: in vivo, rat
# Protocol: Animal tests of luteolin were made at BRM (Biomedical Research Models, Inc.) an East coast contract research organization (CRO) that specializes in diabetes research. […] Historically, these strains have been widely used in similar pre-clinical studies to predict anti-diabetogenic efficacy.
# First, a 24 hour baseline study was performed on 9 chronic Type 2 rats. We found no significant change in hyperglycemia over this 24 hour period of analysis in the diabetic rats. […] Blood glucose analysis was evaluated every 2 hours.
# Unfortunately, that animal died sometime before the 24 hr time point as a result of an accidental perforation of the esophagus during the administration of drug.
# [3] = tested on: Type II (BBZDR/Wor) diabetic rats; experiment: extended (two weeks) luteolin treatment of obese Type II diabetic rats; format: in vivo, rat
# Description: In the next experiment we elected to provide these same rats with a standardized dose over an extended period of treatment. […] The data were expressed for each rat as a percentage change in blood glucose level relative to each individual pre-treatment level.
# [4] = tested on: Type 1 (BB/Wor) diabetic rats; experiment: single luteolin treatment in chronic Type I diabetic rats, blood glucose 0-6 hours; format: in vivo, rat; settings: for average blood glucose at 6 hours: from 415 (insulin) and 445 (luteolin) mg/dl at time 0; for decrease in blood glucose levels: within 6 hours, luteolin 3 mg intragastrically, PZI insulin 0.9-1.2 mU/day subcutaneous
# Protocol: Animal tests of luteolin were made at BRM (Biomedical Research Models, Inc.) an East coast contract research organization (CRO) that specializes in diabetes research. […] Historically, these strains have been widely used in similar pre-clinical studies to predict anti-diabetogenic efficacy. […] In this study, lean male diabetics were randomly assigned to 3 treatment groups (3-4 rats/group). […] Blood glucose was evaluated from time 0 through 6 hours (11 AM-5 PM). […] This response was fully consistent with prior work in the Type I rat model. […] In comparison, there was no reduction in the hyperglycemic state in the control group over the same interval (414 to 404 mg/dl).
# [5] = target: Kv1.3 voltage gated potassium channel (Homo sapiens, UniProt P22001); experiment: patch clamp analysis of Kv1.3 block; format: cell-based
# Description: When the toxic CD8^− Natural Killer Cells combines with the CD4^− Helper T Cells at cystein they electronically stimulate calmodulin. This voltage sensor activates one of the 80+ super gene channels necessary for the activation of the CD4^− and CD8^− T Cells, Kv1.3 a voltage gated potassium channel. If this channel is not activated by calmodulin the T-Cells remain in their resting states. […] There are 200 pores in a resting Beta cell. When cell potential reaches 1.3 nVolts, the Kv1.3, voltage gated potassium channel opens to expose the tyrosine kinase tails. These kinases when stimulated turn on the ras-Oncogene, a cancer promoter, which turns on Protein Kinase C, another tumor promoter. These drive the Nuclear Factors of the Activated T-Cell, such as cAMP; which stimulates the susceptibility genes associated with diabetes such as those on chromosome 19q13.3. These in turn produce InterLeukin-2, an inflammatory cytokine messenger signaling further T-Cell proliferation. When CD8^− cells sample the external receptors of the Beta cell, they find and bind to laminin to sites, such as AGM1, and releases InterLeukin-2 upon calcium loading. This inflammatory cytokine causes cell activation and suppression of insulin release. […]
# [6] = tested on: diabetic test animals (rats and mice); experiment: Brickellia extract and flavonoids in diabetic test animals; format: in vivo
# Protocol: It is believed that the Brickellia californica extract includes the flavonoids dihydrokaemferol, apigenin, luteolin, myricetin and quercetin. Further, the many other species of Brickellia contain these, or similar flavonoids, albeit in different proportions, and should also be effective in treatment of diabetes. Experiments with diabetic test animals (rats and mice) were carried out. […] Further, the administration of synthetic versions of the Brickellia flavonoids were also effective at lowering glucose levels.
# Chain of Kv1.3 voltage gated potassium channel (P22001 whole entry): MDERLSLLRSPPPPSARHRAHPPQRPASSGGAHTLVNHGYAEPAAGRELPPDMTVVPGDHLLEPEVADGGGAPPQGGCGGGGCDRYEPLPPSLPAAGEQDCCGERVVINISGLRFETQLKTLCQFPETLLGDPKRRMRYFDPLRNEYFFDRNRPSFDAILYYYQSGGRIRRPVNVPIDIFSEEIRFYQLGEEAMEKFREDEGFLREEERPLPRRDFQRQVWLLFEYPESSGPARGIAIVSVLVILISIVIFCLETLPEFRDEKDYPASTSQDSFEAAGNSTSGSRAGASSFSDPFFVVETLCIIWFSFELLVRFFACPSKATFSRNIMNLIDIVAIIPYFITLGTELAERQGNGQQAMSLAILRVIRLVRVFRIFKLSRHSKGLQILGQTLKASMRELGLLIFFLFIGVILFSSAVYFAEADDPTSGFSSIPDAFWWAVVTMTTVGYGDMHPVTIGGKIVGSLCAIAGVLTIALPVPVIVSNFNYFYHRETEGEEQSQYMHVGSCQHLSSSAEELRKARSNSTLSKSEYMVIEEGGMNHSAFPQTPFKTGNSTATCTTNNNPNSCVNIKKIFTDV
compound,measurement,setting,value
O=c1cc(-c2ccc(O)cc2)oc2cc(O)cc(O)c12 [apigenin],results in diabetics compared with the extract,[1],results similar to those produced by the extract
O=c1c(O)c(-c2cc(O)c(O)c(O)c2)oc2cc(O)cc(O)c12 [myricetin],effectiveness in treating diabetes,[1],effective in treating diabetes
O=C1c2c(O)cc(O)cc2O[C@H](c2ccc(O)cc2)[C@H]1O [dihydrokaemferol],results in diabetics compared with the extract,[1],results similar to those produced by the extract
O=c1cc(-c2ccc(O)c(O)c2)oc2cc(O)cc(O)c12 [luteolin],"decrease in blood glucose levels, 50 mg three times a day","[2]; Type 2 diabetic rats, 150 mg total, within 24 hr",10.2%
same,"drop in blood glucose, 150 mg three times a day","[2]; Type 2 diabetic rats, 450 mg total, 24 hr",22.9%
same,"decrease in glucose, 250 mg three times a day","[2]; Type 2 diabetic rats, 750 mg total, 24 hr",27.7%
same,reduction of hyperglycemia over all doses,"[2]; Type II diabetic rats, over a 24 hour period, dose-dependent",10-28%
same,reduction of blood glucose in one rat,"[2]; one Type 2 rat, intermediate dose (150 mg), within 18 hr",52%
same,blood glucose of one rat after treatment,"[2]; one Type 2 rat, intermediate dose, from 777 mg/dl, within 18 hr",372 mg/dL
same,average drop of blood glucose levels,"[3]; Type II rats, 50 mg 3x/day for two weeks",41.1%
same,average blood glucose after treatment,"[3]; Type II rats, 50 mg 3x/day for two weeks, from 660 mg/dl",389 mg/dL
same,increase in blood glucose in one rat,"[3]; one rat with esophageal fistula that likely prohibited effective dosing, 50 mg 3x/day two weeks",9.3%
same,average blood glucose at 6 hours,[4],307 mg/dL
same,decrease in blood glucose levels,[4],31%
same,effectiveness in treating diabetes,[1],effective in treating diabetes
same,block of Kv1.3 channel at 100 nM,"[5]; luteolin tested at 100 nM, cell remained in its resting state",blocked completely
same,block of Kv1.3 channel,[5]; patch clamp analysis,blocks this channel
same,rank among treatments involving a single flavonoid,[6],the most effective agent
insulin [reference compound],average blood glucose at 6 hours,[4],112 mg/dL
same,decrease in blood glucose levels,[4],75%
